Experimental data taken from PMC10989073, “Antineoplastic effect of compounds C14 and P8 on TNBC and radioresistant TNBC cells by stabilizing the K-Ras4B^G13D/PDE6δ complex” (Frontiers in Oncology, 2024).

Tests used:
Type in all cases: cell-based, human
[1] = test system: cyclin D1 and GSK3β in MDA-MB-231RR cells; experiment: Western blotting of cyclin D1 and GSK3β; settings: 3 h, C14 and P8 at IC50-24 (Figure 7 legend), cisplatin 100 µM, doxorubicin 0.5 µM
Protocol: (§1) To determine the effect of the C14 and P8 compounds over the protein effectors of K-Ras4B, AKT, and ERK, immunoblotting assays were conducted with specific antibodies. In brief, MCF-10A, MDA-MB-231, and MDA-MB-231RR cells were plated in 100-mm culture dishes until 80% of confluents. Cell adhesion was allowed for 24 h. […] After pre-treatment, cells were stimulated with 100 ng/ml EGF for 10 minutes to promote AKT and ERK activation. Later, the whole-cell extracts were obtained by the lysis of the cells (Cytoskeleton) in the presence of proteases and phosphatase inhibitors. Subsequently, the protein extracts were incubated at 4°C for 40 minutes to be clarified by centrifugation for 10 minutes at 14,000 rpm, at 4°C. The protein concentration of each extract was determined by using the Precision Red Advanced Protein Assay Reagent (Cytoskeleton) Then, approximately 25 μg of protein extract was electrophoresed in 10% sodium dodecyl sulfate–polyacrylamide gel electrophoresis (SDS-PAGE) and transferred to polyvinylidene fluoride (PVDF) membranes (Millipore, Billerica, MA, USA). Blots were probed using the following primary antibodies: Total ERK (Cell Signaling, Danvers, MA, USA), pERK (Cell Signaling), Total AKT (Cell Signaling), pAKT (Cell Signaling), GSK3β (Cell Signaling), and cyclin D1 (Abcam) at a 1:1,000 dilution. As a control, an anti-GAPDH antibody (GeneTex, Irvine, CA, USA) was employed at a 1:100,000 dilution and γ-Tubulin (Invitrogen) 1:5,000. Densitometric analysis of blots was performed using the software ImageJ version 1.45 (National Institutes of Health, Bethesda, […], USA).

[2] = test system: cyclin D1 and GSK3β in MDA-MB-231 cells; experiment: Western blotting of cyclin D1 and GSK3β; settings: MDA-MB-231, 3 h; C14 and P8 at IC50-24 (Figure 7 legend), cisplatin 100 µM, doxorubicin 0.5 µM
Protocol: as §1

MDA-MB-231 cells [3] = experiment: Apoptosis/necrosis assay (Annexin V–propidium iodide, flow cytometry); settings: MDA-MB-231, 24 h; C14 and P8 at IC50-24, cisplatin 100 µM, doxorubicin 0.5 µM
Protocol: (§2) To determine if the C14 and P8 compounds were able to evoke cell death by apoptosis or necrosis, cell lines MCF-10A, MDA-MB-231, and MDA-MB-231RR were treated at IC50-24 for 24 h. Apoptosis and necrosis were determined using the Apoptosis/Necrosis Detection kit (Abcam, Cambridge, UK) according to the manufacturer’s instructions. In brief, approximately 500,000 cells were seeded in 6-well plates (Corning) for 24 h. Then, each cell line was treated with the respective IC50-24 concentrations of C14 and P8. […] Cells were harvested and collected by centrifugation. All the samples were analyzed in triplicate using flow cytometry equipment FACSCalibur instrument (BD Biosciences, San Jose, CA, USA) at […] and 575-nm emission. Data analysis was performed using the FlowJo software (Tree Star Inc., Ashland, OR, USA). All experiments were performed in triplicate.

MDA-MB-231RR cells [4] = experiment: as above; settings: 24 h, C14 and P8 at IC50-24, cisplatin 100 µM, doxorubicin 0.5 µM
Protocol: as §2

MCF-10A cells [5] = experiment: Clonogenic assay; settings: 10 to 12 days, C14 and P8 at IC50-48, cisplatin 100 µM, doxorubicin 0.5 µM
Protocol: (§3) The principal aim of a clonogenic assay is to evaluate the effect of chemotherapy agents or new drugs by the measurement of their ability to arrest tumor cell division and their ability to develop new colonies after their exposure to these new drugs ([56]). Therefore, the colony formation ability of the cell lines MCF-10A, MDA-MB-231, and MDA-MB-231RR was evaluated after their exposure to the C14 and P8 compounds. In brief, breast cancer cell lines were cultured in 6-well plates (Corning), seeding 300 cells per well, and incubated at 37°C in 5% CO2 for 24 h. Compounds C14 and P8 were added at the maximum evaluated concentration IC50-48. As controls, cells without treatment and cells treated in the presence of a vehicle (DMSO at 0.66%) were employed (Sigma-Aldrich). […] After 10 days of treatment, cells were fixed with 4% PFA and stained with 0.1% crystal violet in citric acid (Sigma-Aldrich) for 15 minutes. Subsequently, the dye present in the cells was extracted using isopropanol and read at 570 nm in a Synergy-HTX microplate reader (BioTek). Each test was performed in triplicate. Data were expressed as % colonies relative to the untreated control ([56]).

MDA-MB-231 cells [6] = experiment: Clonogenic assay; settings: MDA-MB-231, 10 to 12 days; C14 and P8 at IC50-48, cisplatin 100 µM, doxorubicin 0.5 µM
Protocol: as §3

MDA-MB-231RR cells [7] = experiment: Clonogenic assay; settings: 10 to 12 days, C14 and P8 at IC50-48, cisplatin 100 µM, doxorubicin 0.5 µM
Protocol: as §3

MDA-MB-231 cells [8] = experiment: Cell cycle analysis (propidium iodide, flow cytometry); settings: MDA-MB-231, 3 h at IC50-48H; control 10.0%
Protocol: After 3-h incubation, cells were harvested, washed twice in ice-cold PBS, and fixed overnight in 70% ethanol at 4°C. Then, cells were washed in PBS, collected by centrifugation, and stained with staining buffer (PBS with 50 µg/ml propidium iodide and 100 µg/ml RNase A).

Ras-GTP in MCF-10A cells = experiment: Ras activation pull-down assay (Raf-RBD); settings: 3 h pre-treatment (C14, P8 at IC50-48H), EGF 100 ng/ml 10 min
Protocol: Subsequently, the cells were stimulated with epidermal growth factor (EGF) (100 ng/ml) for 10 minutes. Lysates (1 mg/ml) were exposed to Ras GTP-binding protein (Raf-RBD), following the manufacturer’s instructions. Experiments for each cell type and condition were repeated three times.

MCF-10A cells [9] = experiment: Apoptosis/necrosis assay (Annexin V–propidium iodide, flow cytometry); settings: 24 h, cisplatin 100 µM, doxorubicin 0.5 µM
Protocol: as §2, with “Apoptosis” for “To determine if the C14 and P8 compounds were able to evoke cell death by apoptosis or necrosis, cell lines MCF-10A, MDA-MB-231, and MDA-MB-231RR were treated at IC50-24 for 24 h. Apoptosis”, “h.” for “h. Then, each cell line was treated with the respective IC50-24 concentrations of C14 and P8.”

In the case of `COc1cccc2c1C(=O)c1c(O)c3c(c(O)c1C2=O)C[C@@](O)(C(=O)CO)C[C@@H]3O[C@H]1C[C@H](N)[C@H](O)[C@H](C)O1` [Doxorubicin, doxorubicin, reference compound], the “reduction in cyclin D1” value [1] is reported as 20%, the “reduction in cyclin D1 expression” value [2] is reported as “no significant effect” and the apoptosis cells (MDA-MB-231 cells [3]) is reported as 4.65%. It also gave a necrosis (MDA-MB-231 cells [3]) of 9.20%, an apoptosis cells (MDA-MB-231RR cells [4]) of 0.61% and a necrosis (MDA-MB-231RR cells [4]) of 1.28%. For the same compound, the “reduction of colony growth” value (MCF-10A cells [5]) was “up to 90%”, the “reduction in colony formation” value (MDA-MB-231 cells [6]) was “significant reduction” and the “reduction in colony formation” value (MDA-MB-231RR cells [7]) was 90%. For the same compound, the “percentage of cells in G2/M” value (MDA-MB-231 cells [8]) was “increased”, the “reduction in Ras-GTP” value (Ras-GTP in MCF-10A cells) was 40% and the apoptosis cells (MCF-10A cells [9]) was “up to 11.54%”.
